≈ marks a conversion by molar mass, not a printed value. Structures can show the parent of a compound that is named as a salt.
Assays:
Assay in all cases: In vitro antibacterial activity, two-fold agar-plate dilution method
Format in all cases: cell-based
[1] = system: Staphylococcus aureus 209 P JC-1; conditions: 209PJC1, HI-agar, 37° C., 20 hours, read-out: MIC (minimal inhibitory concentration)
Experimental: (§1) In vitro antibacterial activity was determined by the two-fold agar-plate dilution method as described below.
(§2) One loopful of the 100-fold dilution of an overnight culture of each test strain in Trypticasesoy broth was streaked on heart infusion agar (HI-agar) containing graded concentrations of the test compound and incubated at 37° C. for 20 hours. The minimal inhibitory concentration (MIC) was expressed in μg/ml.

[2] = system: Escherichia coli NIHJ JC-2; conditions: NIHJJC2, HI-agar, 37° C., 20 hours, read-out: MIC (minimal inhibitory concentration)
Experimental: as §1, §2

[3] = system: Proteus vulgaris IAM-1025; conditions: IAM1025, HI-agar, 37° C., 20 hours, read-out: MIC (minimal inhibitory concentration)
Experimental: as §1, §2

Proteus mirabilis 18 = conditions: HI-agar, 37° C., 20 hours, read-out: MIC (minimal inhibitory concentration)
Experimental: as §1, §2

[4] = system: Pseudomonus aeruginosa NCTC-10490; conditions: HI-agar, 37° C., 20 hours, read-out: MIC (minimal inhibitory concentration)
Experimental: as §1, §2

Klebsiella pneumoniae 20 = conditions: HI-agar, 37° C., 20 hours, read-out: MIC (minimal inhibitory concentration)
Experimental: as §1, §2

Row | MIC [1] | MIC [2] | MIC [3] | MIC (Proteus mirabilis 18) | MIC [4] | MIC (Klebsiella pneumoniae 20) | Compound
1 | 6.25 µg/mL (≈ 15.3 µM) | 0.05 µg/mL (≈ 0.122 µM) | 0.025 µg/mL (≈ 0.0612 µM) | 0.025 µg/mL (≈ 0.0612 µM) | 1.56 µg/mL (≈ 3.82 µM) | 0.025 µg/mL (≈ 0.0612 µM) | N#CCO/N=C(\C(=O)NC1C(=O)N2C(C(=O)O)=CCSC12)c1csc(N)n1 (stereo not drawn) [Compound 1, 7-[2-(2-aminothiazol-4-yl)-2-cyanomethoxyiminoacetamido]-3-cephem-4-carboxylic acid (syn isomer)]
2 | 12.5 µg/mL (≈ 30.2 µM) | 0.05 µg/mL (≈ 0.121 µM) | 0.025 µg/mL (≈ 0.0605 µM) | 0.025 µg/mL (≈ 0.0605 µM) | 3.13 µg/mL (≈ 7.57 µM) | 0.025 µg/mL (≈ 0.0605 µM) | Nc1nc(/C(=N/OCCO)C(=O)NC2C(=O)N3C(C(=O)O)=CCSC23)cs1 (stereo not drawn) [Compound 2, 7-[2-(2-aminothiazol-4-yl)-2-(2-hydroxyethoxyimino)acetamido]-3-cephem-4-carboxylic acid (syn isomer)]
3 | 1.56 µg/mL (≈ 3.63 µM) | 0.05 µg/mL (≈ 0.116 µM) | 0.025 µg/mL (≈ 0.0582 µM) | 0.05 µg/mL (≈ 0.116 µM) | 1.56 µg/mL (≈ 3.63 µM) | 0.025 µg/mL (≈ 0.0582 µM) | CSCO/N=C(\C(=O)NC1C(=O)N2C(C(=O)O)=CCSC12)c1csc(N)n1 (stereo not drawn) [Compound 4, 7-[2-(2-aminothiazol-4-yl)-2-(methylthiomethoxyimino)acetamido]-3-cephem-4-carboxylic acid (syn isomer)]

The next lines start with the compound.

Row | Compound | MIC [1] | MIC [2] | MIC [3] | MIC (Proteus mirabilis 18) | MIC [4] | MIC (Klebsiella pneumoniae 20)
4 | CCOCCO/N=C(\C(=O)NC1C(=O)N2C(C(=O)O)=CCSC12)c1csc(N)n1 (stereo not drawn) [Compound 3, 7-[2-(2-aminothiazol-4-yl)-2-(2-ethoxyethoxyimino)acetamido]-3-cephem-4-carboxylic acid (syn isomer)] | 3.13 µg/mL (≈ 7.09 µM) | 0.2 µg/mL (≈ 0.453 µM) | 0.025 µg/mL (≈ 0.0566 µM) | 0.2 µg/mL (≈ 0.453 µM) | 1.56 µg/mL (≈ 3.53 µM) | 0.025 µg/mL (≈ 0.0566 µM)
5 | NCc1ccc(CO/N=C(\C(=O)NC2C(=O)N3C(C(=O)O)=CCSC23)c2csc(N)n2)cc1 (stereo not drawn) [Compound 5, 7-[2-(2-aminothiazol-4-yl)-2-(4-aminomethylbenzyloxyimino)acetamido]-3-cephem-4-carboxylic acid dihydrochloride (syn isomer)] | 0.78 µg/mL | 0.1 µg/mL | 0.05 µg/mL | 0.1 µg/mL | 3.13 µg/mL | 0.05 µg/mL
6 | Nc1nc(/C(=N/OCc2ccon2)C(=O)NC2C(=O)N3C(C(=O)O)=CCSC23)cs1 (stereo not drawn) [Compound 6, 7-[2-(2-aminothiazol-4-yl)-2-(3-isoxazolylmethoxyimino)acetamido]-3-cephem-4-carboxylic acid (syn isomer)] | 3.13 µg/mL (≈ 6.95 µM) | 0.1 µg/mL (≈ 0.222 µM) | 0.025 µg/mL (≈ 0.0555 µM) | 0.1 µg/mL (≈ 0.222 µM) | 1.56 µg/mL (≈ 3.46 µM) | 0.025 µg/mL (≈ 0.0555 µM)

Reference: US4284631A, “7-Substituted cephem compounds and pharmaceutical antibacterial compositions containing them” (Fujisawa Pharmaceutical Co., Ltd., priority 1978, dated 1981)
